Data from US5719278A, “Tricyclic benzazepine vasopressin antagonists” (American Cyanamid Company, priority 1996, dated 1998).

Tests used:
[1] = molecular target: T1, Rat Kidney Medullary V2 Receptors (Rattus norvegicus, UniProt Q00788); assay: Binding Assay to Rat Kidney Medullary V2 Receptors; settings: for IC50: Rat Kidney Medullary V2 Receptors (no asterisk)
T1 construct: Medullary tissues from rat kidneys are dissected out; from tissue; host or cells: rat kidney medulla membranes
Protocol: Binding Assay to Rat Kidney Medullary V2 Receptors
Medullary tissues from rat kidneys are dissected out, cut into small pieces and let soak in a […] sodium chloride solution containing 1.0 mM EDTA with many changes of the liquid phase, until the solution is clear of blood. The tissue is homogenized in a 0.25M sucrose solution containing 1.0 mM EDTA and 0.1 mM PMSF using a Potter-Elvehjem homogenizer with a teflon pestle. The homogenate is filtered through several layers (4 layers) of cheese cloth. The filtrate is rehomogenized using a dounce homogenizer, with a tight fitting pestle. The final homogenate is contrifuged at 1500×g for 15 min. The nuclear pellet is discarded and the supernatant fluid recentrifuged at 40,000×g for 30 min. The resulting pellet formed contains a dark inner part with the exterior, slightly pink. The pink outer part is suspended in a small amount of 50.0 mM Tris.HCl buffer, pH 7.4. The protein content is determined by the Lowry's method (Lowry et al, J. Biol. Chem., 1953). The membrane suspension is stored at -70° C., in 50.0 mM Tris.HCl, containing 0.2% inactivated BSA and 0.1 mM PMSF in aliquots of 1.0 ml containing 10.0 mg protein per ml of suspension until use in subsequent binding experiments.
For binding experiments, the following is added in μl volume to wells of a 96 well format of a microtiter plate: 100.0 μl of 100.0 mM Tris.HCl buffer containing 0.2% heat inactivated BSA, 10.0 mM MgCl2 and a mixture of protease inhibitors: leupeptin, 1.0 mg %; aprotinin, 1.0 mg %; 1,10-phenanthroline, 2.0 mg %; trypsin inhibitor, 10.0 mg % and 0.1 mM PMSF, 20.0 μl of [^3 H]Arginine^8, vasopressin (S.A. 75.0 Ci/mmole) at 0.8 nM and the reaction initiated by the addition of 80.0 μl of tissue membranes (200.0 μg tissue protein). The plates are left undisturbed on the bench top for 120 min. to reach equilibrium. Non-specific binding is assessed in the presence of 1.0 μM of unlabeled ligand, added in 20 μl volume. For test compounds, these are solubilized in 50% dimethylsulfoxide (DMSO) and added in 20.0 μl volume to a final incubation volume of 200 μl. Upon completion of binding, the content of each well is filtered off, using a Brandel® cell Harvester (Gaithersburg, Md.). The radioactivity trapped on the filter disk by the ligand-receptor complex is assessed by liquid scintillation counting in a Packard LS Counter, with an efficiency of 65% for tritium. The data are analyzed for IC50 values by the LUNDON-2 program for competition (LUNDON SOFTWARE, Ohio).

oxytocin receptors = molecular target: T2, oxytocin receptors (Rattus norvegicus, UniProt P70536); assay: Oxytocin Receptor Binding; design: species or system Sprague-Dawley rat
T2 construct: The uteri are dissected out, cleaned of fat and connective tissues; from tissue; host or cells: uterus of DES-treated female Sprague-Dawley rats
T2 sequence (P70536 1-388): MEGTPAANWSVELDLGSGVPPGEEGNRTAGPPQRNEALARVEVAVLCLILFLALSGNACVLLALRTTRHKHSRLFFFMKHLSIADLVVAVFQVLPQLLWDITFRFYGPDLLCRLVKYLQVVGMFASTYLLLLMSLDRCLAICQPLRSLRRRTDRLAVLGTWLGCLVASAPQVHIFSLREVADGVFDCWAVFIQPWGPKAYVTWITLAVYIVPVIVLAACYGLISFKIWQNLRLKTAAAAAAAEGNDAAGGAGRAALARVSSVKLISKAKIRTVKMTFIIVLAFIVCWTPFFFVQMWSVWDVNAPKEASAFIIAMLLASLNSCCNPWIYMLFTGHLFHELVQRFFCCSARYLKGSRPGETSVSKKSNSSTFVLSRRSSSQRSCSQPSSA
Protocol: Oxytocin Receptor Binding
Female Sprague-Dawley rats weighing approximately 200-250 g are injected intramuscularly (i.m.) with 0.3 mg/kg of body weight of diethylstilbestrol (DES). The rats are sacrificed 18 hours later under pentobarbital anesthesia. The uteri are dissected out, cleaned of fat and connective tissues and rinsed in 50 ml of normal saline. The tissue pooled from six rats is homogenized in 50 ml of […] TriS.HCl, containing 0.5 mM dithiothreitol and 1.0 mM EDTA, adjusted to pH 7.4, using a polytron at setting 6 with three passes of 10 sec each. The homogenate is passed through two (2) layers of cheesecloth and the filtrate contrifuged at 1000×g for 10 min. The clear supernatant is removed and recentrifuged at 165,000×g for 30 min. The resulting pellet containing the oxytocin receptors is resuspended in 50.0 mM Tris.HCl containing 5.0 mM MgCl2 at pH 7.4, to give a protein concentration of 2.5 mg/ml of tissue suspension. This preparation is used in subsequent binding assays with [^3 H]Oxytocin.
Binding of 3,5-[^3 H]Oxytocin ([^3 H]OT) to its receptors is done in microtiter plates using [^3 H]OT, at various concentrations, in an assay buffer of 50.0 mM Tris.HCl, pH 7.4 and containing 5.0 mM MgCl2, and a mixture of protease inhibitors: BSA, 0.1 mg; aprotinin, 1.0 mg; 1,10-phenanthroline, 2.0 mg; […], 10.0 mg; and PMSF, 0.3 mg per 100 ml of buffer solution. Non-specific binding is determined in the presence of 1.0 uM unlabeled OT. The binding reaction is terminated after 60 min., at 22° C., by rapid filtration through glass fiber filters using a Brandel® cell harvester (Biomedical Research and Development Laboratories, Inc., Gaithersburg, Md.). Competition experiments are conducted at equilibrium using 1.0 nM [^3 H]OT and varying the concentration of the displacing agents. The concentrations of agent displacing 50% of [^3 H]OT at its sites (IC50) are calculated by a computer assisted LUNDON-2 program (LUNDON SOFTWARE INC., Ohio, U.S.A.).

Vasopressin V2 = Vasopressin V2 Antagonist Activity in Conscious Hydrated Rats; format: in vivo, rat; settings: 10 mg/kg orally, N = 2, AVP 0.4 μg/kg intraperitoneally; for Osmolality (mOsm/kg): urine
Protocol: Vasopressin V2 Antagonist Activity in Conscious Hyrdated Rats
Conscious hydrated rats are treated with compounds under study from 0.1 to 100 mg/kg orally or vehicle. Two to four rats are used for each compound. One hour later, arginine vasopressin (AVP, antidiuretic hormone, ADH) dissolved in peanut oil is administered at 0.4 μg/kg intraperitoneally. Two rats in each test would not receive arginine vasopressin but only the vehicle (peanut oil) to serve as water-loading control. Twenty minutes later each rat is given 30 mL/kg of deionized water orally by gavage and is placed individually in a metabolic cage equipped with a funnel and a graduated glass cylinder to collect urine for four hours. Urine volume is measured and osmolality analyzed by use of a Fiske One-Ten osmometer (Fiske Assoc., Norwood, Mass. U.S.A.). Urinary sodium, potassium, and chloride are analyzed by use of ion-specific electrodes in a Beckman E3(Electrolyte 3) Analyzer.
In the following results, […] and decreased osmolality relative to AVP-control indicates activity.

[2] = molecular target: T3, V1 Receptor Subtype in Human Platelet (Homo sapiens, UniProt P37288); assay: Binding to Vasopressin V1 Receptor Subtype in Human Platelet Membranes
T3 construct: from tissue; host or cells: human platelets (platelet rich plasma from Hudson Valley Blood Services)
Protocol: Radioligand Binding Experiments with Human Platelet Membranes
Platelet Source: Hudson Valley Blood Services, Westchester Medical Center, Valhalla, N.Y.
Frozen platelet rich plasma (PRP), received from the Hudson Valley Blood Services are thawed to room temperature. The tubes containing the PRP are centrifuged at 16,000×g for 10 min. at 4° C. and the supernatant fluid discarded. The platelets resuspended in an equal volume of 50.0 mM Tris.HCl, pH 7.5 containing 120 mM NaCl and 20.0 mM EDTA. The suspension is recentrifuged at 16,000×g for 10 min. This washing step is repeated one more time. The wash is discarded and the lysed pellets homogenized in low ionic strength buffer of Tris.HCl, 5.0 mM, pH 7.5 containing 5.0 mM EDTA. The homogenate is centrifuged at 39,000×g for 10 min. The resulting pellet is resuspended in Tris.HCl buffer, 70.0 mM, pH 7.5 and recentrifuged at 39,000×g for 10 min. The final pellet is resuspended in 50.0 mM Tris.HCl buffer pH 7.4 containing 120 mM NaCl and 5.0 mM HCl to give 1.0-2.0 mg protein per ml of suspension.
Binding to Vasopressin V1 Receptor Subtype in Human Platelet Membranes:
In wells of a 96 well format microtiter plate, add 100 μl of 50.0 mM Tris.HCl buffer containing 0.2% BSA and a mixture of protease inhibitors (aprotinin, leupeptin etc.). Then add 20 μl of [^3 H]Ligand: (Manning or Arg^8 Vasopressin), to give final concentrations ranging from 0.01 to 10.0 nM. Initiate the binding by adding 80.0 μl of platelet suspension (approx. 100 μg protein). Mix all reagents by pipetting the mixture up and down a few times. Non-specific binding is measured in the presence of 1.0 μM of unlabeled ligand (Manning or Arg^8 Vasopressin). Let the mixture stand undisturbed at room temperature for ninety (90) min. Upon this time, rapidly filter off the incubate under vacuum suction over GF/B filters, using a Brandel® Harvester. Determine the radioactivity caught on the filter disks by the addition of liquid scintillant and counting in a liquid scintillator

T1 sequence (Q00788 whole entry): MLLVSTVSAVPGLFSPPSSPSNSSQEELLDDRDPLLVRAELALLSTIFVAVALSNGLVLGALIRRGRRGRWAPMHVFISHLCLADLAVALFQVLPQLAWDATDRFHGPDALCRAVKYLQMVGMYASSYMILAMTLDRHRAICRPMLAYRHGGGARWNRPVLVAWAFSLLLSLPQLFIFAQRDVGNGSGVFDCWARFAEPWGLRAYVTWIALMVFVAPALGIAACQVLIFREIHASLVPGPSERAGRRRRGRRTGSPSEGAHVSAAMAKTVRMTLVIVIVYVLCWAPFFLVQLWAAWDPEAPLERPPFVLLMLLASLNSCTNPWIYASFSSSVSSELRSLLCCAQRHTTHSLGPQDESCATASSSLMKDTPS
T3 sequence (P37288 whole entry): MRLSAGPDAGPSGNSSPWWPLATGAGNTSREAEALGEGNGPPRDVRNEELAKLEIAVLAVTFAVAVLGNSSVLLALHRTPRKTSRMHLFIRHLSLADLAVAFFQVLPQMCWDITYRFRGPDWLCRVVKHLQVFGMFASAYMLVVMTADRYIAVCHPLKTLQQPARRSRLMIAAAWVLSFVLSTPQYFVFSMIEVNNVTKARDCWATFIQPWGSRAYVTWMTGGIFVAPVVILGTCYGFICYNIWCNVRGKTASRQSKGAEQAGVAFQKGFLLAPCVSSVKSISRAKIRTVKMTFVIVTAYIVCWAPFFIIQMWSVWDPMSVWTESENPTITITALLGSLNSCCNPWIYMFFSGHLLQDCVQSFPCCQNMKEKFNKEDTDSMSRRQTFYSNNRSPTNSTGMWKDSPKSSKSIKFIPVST

SMILES	IC50 [1] [µM]	inhibition at 10 µM (oxytocin receptors) [%]	Urine Vol. (ml/4 hrs.) (Vasopressin V2)	Osmolality (mOsm/kg) (Vasopressin V2)	further results
O=C(Nc1ccc(C(=O)N2CCc3cn[nH]c3-c3sccc32)c(Cl)c1)c1cc(Cl)ccc1F [Example 4, N-[4-[(4,5-Dihydropyrazolo[3,4-d]thieno[3,2-b]azepin-6(1H)-yl)carbonyl]-3-chlorophenyl]-5-chloro-2-fluorobenzamide]	0.036	–	–	–	–
Cc1ccc(F)cc1C(=O)Nc1ccc(C(=O)N2CCc3cn[nH]c3-c3cccnc32)cc1 [Example 16, N-[4-[(4,5-Dihydropyrazolo[3,4-d]pyrido[2,3-b]azepin-6(1H)-yl)carbonyl]phenyl]-5-fluoro-2-methylbenzamide]	0.55	–	–	–	IC50 ([2]; *Binding to V1 Receptor Subtype in Human Platelet): 3.3 µM
O=C(c1ccc(-c2ccccc2)cc1)N1CCc2cn[nH]c2-c2ncccc21 [Example 364, 6-([1,1'-Biphenyl]-4-ylcarbonyl)-1,4,5,6-tetrahydropyrazolo[3,4-d]pyrido[3,2-b]azepine]	–	–	–	–	inhibition at 1 µM ([1]; Rat Kidney Medullary V2, at 1 μM): 17%; inhibition at 10 µM ([2]; 1.5 h, *Human Platelet V1, at 10 μM): 77%
O=C(Nc1ccc(C(=O)N2CCc3cn[nH]c3-c3ncccc32)c(Cl)c1)c1ccccc1-c1ccccc1 [Example 366, N-[4-[(4,5-Dihydropyrazolo[3,4-d]pyrido[3,2-b]azepin-6(1H)-yl)carbonyl]-3-chlorophenyl][1,1'-biphenyl]-2-carboxamide]	–	–	17.8	431	–
O=C(Nc1ccc(C(=O)N2CCc3c[nH]nc3-c3ncccc32)cn1)c1ccccc1-c1ccccc1 [Example 368, N-[5-[(4,5-Dihydro[3,4-d]pyrido[3,2-b]azepin-6(1H)-yl)carbonyl]-2-pyridinyl][1,1'-biphenyl]-2-carboxamide]	–	–	20.3	371	–

Continued, in another order:

IC50 [1] [µM]	inhibition at 10 µM (oxytocin receptors) [%]	SMILES	Urine Vol. (ml/4 hrs.) (Vasopressin V2)	Osmolality (mOsm/kg) (Vasopressin V2)	further results
0.0061	–	Cc1ccc(F)cc1C(=O)Nc1ccc(C(=O)N2CCc3c[nH]nc3-c3sccc32)c(Cl)c1 [Example 3, N-[4-[(4,5-Dihydropyrazolo[3,4]thieno[3,2-b]azepin-6-(1H)-yl)carbonyl]-3-chlorophenyl]-5-fluoro-2-methylbenzamide]	–	–	–
–	47	Cn1cc2c(n1)-c1sccc1N(C(=O)c1ccc(NC(=O)c3ccc(Cl)cc3Cl)cc1)CC2 [Example 5, N-[4-[[4,5-Dihydro-2-methylpyrazolo[3,4-d]thieno[3,2-b]-azepin-6-(2H)-yl]carbonyl]phenyl]2,4-dichlorobenzamide]	–	–	–
–	65	Cc1ccccc1C(=O)Nc1ccc(C(=O)N2CCc3c[nH]nc3-c3sccc32)cc1 [Example 7, N-[4-[[4,5-Dihydropyrazolo[3,4-d]thieno[3,2-b]azepin-6(2H)-yl]carbonyl]phenyl]-2-methylbenzamide]	20.8	322	–
–	57	Cc1ccccc1C(=O)Nc1ccc(C(=O)N2CCc3cn(C)nc3-c3sccc32)cc1 [Example 361]	–	–	IC50 (oxytocin receptors; 1.0 nM [^3 H]OT, 60 min., 22° C.): 6400 nM
